The values below come from patent US8729047B2, “Compositions for inhibiting redox-sensitive GTPases” (Board of Regents, The University of Texas System, priority 2010, dated 2014).

The subject of data set [1] is A7r5 cells. The experiment in a line: Viability / cytotoxicity of A7r5 cells. It is filed as cell-based, rat. As to conditions: 5 days of treatment; FIG. 24. From the text:
FIG. 24. Effects of 6- and 8-TG on A7r5 cells. Treatment of cells with 6- or 8-TG is described in FIGS. 19 and 21. The image associated with the effect of 6- or 8-TG was taken after 5 days of treatment.

The target of data set [2] is T1, RhoA (Homo sapiens, UniProt P61586).
T1 construct: made in house; host or cells: E. coli
The experiment in a line: Competitive binding assay, [3H]GDP-loaded Rho protein titrated with 6-TGDP (FIG. 16A). The procedure:
FIG. 16. Kinetic properties of RhoC with 6-TGDP in the presence or absence of a redox agent. All kinetic analyses are described elsewhere herein. (A) ^appKD values of Rac1, RhoA, RhoC, and RhoC C20S for 6-TGDP were estimated to be 7.9, 11.6, 11.8, and 11.2 μM, respectively. ^trueKD values of Rac1, RhoA, and RhoC for 6-TGDP were then calculated to be 5.1, 10.8, 11.1, and 10.5 μM, respectively, by using a compensation equation, ^trueKD for 6-TGDP=^appKD for 6-TGDP/(1+[[^3H]GDP]/^trueKD for GDP) (Heo, J., and Hong, I. (2010) Biochemistry 49, 3965-3976), in conjunction with the values given. […] The GDP dissociation rates from RhoC C20S by NO, .NO2, and N2O3 were estimated to be 0.02×10^−3, 0.05×10^−3, and 0.04×10^−3 s^−1, respectively. […] (D) ^appKD values of RhoC for [^3H]GDP in the presence or absence of DTT were estimated to be 22.4 μM and […], respectively. ^appKD values of C20S RhoC for [^3H]GDP in the presence or absence of DTT were determined to be 24.8 μM and 25.2 μM, respectively. […]
(a) A competitive binding assay was performed to determine the binding affinity of Rho GTPase and 6-TGDP. […] Each membrane was washed three times with the assay buffer, and radioactivity was determined using a Beckman-Coulter scintillation counter. The radioactivity of the sample (Rho protein-bound [^3H]GDP) was converted into, and thus plotted, as the fraction of mol GDP per mol total Rho protein. […]

The target of data set [3] is Rac1 (Homo sapiens, UniProt P63000). The description is as above. On the set-up: made in house; host or cells: E. coli. The procedure:
FIG. 16. Kinetic properties of RhoC with 6-TGDP in the presence or absence of a redox agent. All kinetic analyses are described elsewhere herein. (A) ^appKD values of Rac1, RhoA, RhoC, and RhoC C20S for 6-TGDP were estimated to be 7.9, 11.6, 11.8, and 11.2 μM, respectively. ^trueKD values of Rac1, RhoA, […] for 6-TGDP were then calculated to be 5.1, 10.8, 11.1, and 10.5 μM, respectively, by using a compensation equation, ^trueKD for 6-TGDP=^appKD for 6-TGDP/(1+[[^3H]GDP]/^trueKD for GDP) (Heo, J., and Hong, I. (2010) Biochemistry 49, 3965-3976), in conjunction with the values given. […] The GDP dissociation rates from RhoC C20S by NO, .NO2, and N2O3 were estimated to be 0.02×10^−3, 0.05×10^−3, and 0.04×10^−3 s^−1, respectively. […] (D) ^appKD values of RhoC for [^3H]GDP in the presence or absence of DTT were estimated to be 22.4 μM and […], respectively. ^appKD values of C20S RhoC for [^3H]GDP in the presence or absence of DTT were determined to be 24.8 μM and 25.2 μM, respectively. The regression values associated with these fits were >0.8595. All data points associated with vertical standard error bars shown in this figure are the mean values of triplicate measurements.
Transition metal-free assay buffer and vials as described in a previous study (Heo et al. Biochemistry 49, 3965-3976 (2010)) were used for all kinetic assays. The kinetic assay buffer contains the highest grade of 50 mM NaCl, 10 mM MgCl2, 1 mM EDTA, and 0.1 mM DTPA in 50 mM TrisHCl (pH 7.4). Before performance of any of the assays, all protein samples also were dialyzed with a metal-free buffer under anaerobic conditions. As with RhoA and Rac1 (Heo et al. J. Biol. Chem. 280, 31003-31010 (2005)), C20S RhoC were expressed in E. coli and purified using anionic and size exclusion columns.
(a) A competitive binding assay was performed to determine the binding affinity of Rho GTPase and 6-TGDP. The radiolabeled [^3H]GDP-loaded Rho protein (1 μM) was titrated with various concentrations of 6-TGDP. The titrated Rho protein sample then was spotted onto a nitrocellulose membrane. Each membrane was washed three times with the assay buffer, and radioactivity was determined using a Beckman-Coulter scintillation counter. The radioactivity of the sample (Rho protein-bound [^3H]GDP) was converted into, and thus plotted, as the fraction of mol GDP per mol total Rho protein. The apparent dissociation constant (^appKD) of the Rho protein with [^3H]GDP in the presence of 6-TGDP was determined by using Prism software to fit the titration curve to a hyperbola.

Where [4] appears, read: [3H]GDP-loaded Rho protein 1 μM titrated with 6-TGDP, read-out: appKD for 6-TGDP.
The mark [5] stands for this setting: calculated by compensation equation, read-out: trueKD for 6-TGDP.

Molecules are shown by their SMILES. Where two headings read alike, the source gives them in different places.

T1 sequence (P61586 whole entry, species assumed): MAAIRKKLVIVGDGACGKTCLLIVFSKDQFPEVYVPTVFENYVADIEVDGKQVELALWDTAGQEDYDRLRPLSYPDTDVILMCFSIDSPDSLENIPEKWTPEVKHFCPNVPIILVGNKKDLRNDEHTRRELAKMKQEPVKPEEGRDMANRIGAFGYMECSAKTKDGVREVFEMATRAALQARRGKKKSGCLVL

As for `Nc1nc2[nH]c(S)nc2c(=O)[nH]1` [8-TG, 2-amino-8-mercapto-1H-purin-6(9H)-one], the “viability / cytotoxicity of A7r5 cells” value in data set [1] is reported as “did not alter the viability”.
As for `Nc1nc2c(ncn2[C@@H]2O[C@H](COP(=O)(O)OP(=O)(O)O)[C@@H](O)[C@H]2O)c(=S)[nH]1` [6-TGDP, 6-thioguanosine diphosphate], the Kd was 11.6 µM in data set [2] (setting [4]), 10.8 µM in data set [2] (setting [5]), 7.9 µM in data set [3] (setting [4]) and 5.1 µM in data set [3] (setting [5]).
